System: primary HSCs
Conditions: Day_6_JQ1

Compound: Cc1sc2c(c1C)C(c1ccc(Cl)cc1)=N[C@@H](CC(=O)OC(C)(C)C)c1nnc(C)n1-2 [JQ1, (S)-tert-butyl 2-(4-(4-chlorophenyl)-2,3,9-trimethyl-6H-thieno[3,2-f][1,2,4]triazolo[4,3-a][1,4]diazepin-6-yl)acetate]
- 1110067D22Rik value_2: 7.6991
- 9930013L23Rik value_2: 31.3095
- A430110N23Rik value_2: 1.529
- Acot11 value_2: 1.6538
- Acpl2 value_2: 7.205
- Adam8 value_2: 11.9385
- Adamts12 value_2: 17.1447
- Adcy1 value_2: 0.8092
- Adcy5 value_2: 0.9801
- Adcy7 value_2: 3.439
- Aif1l value_2: 1.208
- Akap5 value_2: 1.478
- Aldh1a2 value_2: 19.1605
- Aldh1l1 value_2: 1.536
- Aldh1l2 value_2: 7.698
- Ankrd55 value_2: 7.519
- Apbb1ip value_2: 18.5518
- Apbb1 value_2: 7.273
- Arhgef6 value_2: 2.025
- Arhgef25 value_2: 25.9937
- Arl5a value_2: 37.4802
- Arsb value_2: 16.7663
- Avpr1a value_2: 1.651
- B3galnt1 value_2: 2.653
- B4galt2 value_2: 15.1944
- Bag2 value_2: 14.4878
- Bdnf value_2: 4.6088
- Bnip3 value_2: 18.6877
- Boc value_2: 14.1708
- Cacng7 value_2: 2.276
- Casp12 value_2: 4
- Ccbe1 value_2: 26.2027
- Ccnd2 value_2: 143.49
- Ccng1 value_2: 163.356
- Cd276 value_2: 5.674
- Cdh11 value_2: 17.4722
- Celf2 value_2: 11.1573
- Cercam value_2: 9.775
- Chpf value_2: 51.0364
- Chst12 value_2: 44.2429
- Chsy3 value_2: 4.1726
- Cnrip1 value_2: 15.1406
- Col1a1 value_2: 830.694
- Col4a5 value_2: 36.069
- Col12a1 value_2: 37.8465
- Col16a1 value_2: 5.064
- Copz2 value_2: 47.0355
- Cplx2 value_2: 3.358
- Crispld2 value_2: 4.912
- Crlf1 value_2: 26.6612
- Csrp2 value_2: 137.115
- Cul7 value_2: 19.1665
- Cxx1c value_2: 13.5431
- D4Bwg0951e value_2: 30.19
- Ddah1 value_2: 10.4898
- Dhrs1 value_2: 30.0462
- Dmpk value_2: 26.4788
- Dnpep value_2: 41.0591
- Dpysl3 value_2: 14.2712
- Dynlrb1 value_2: 162.462
- Dzip1l value_2: 10.8578
- Emp2 value_2: 8.903
- Enpp5 value_2: 25.6268
- Ext1 value_2: 80.2965
- Extl3 value_2: 35.6167
- Fah value_2: 1.793
- Fam19a5 value_2: 1.344
- Fam20a value_2: 11.2001
- Fam38b value_2: 3.39
- Fam110c value_2: 13.4372
- Fam132a value_2: 4.331
- Fap value_2: 1.601
- Fbxw9 value_2: 14.3107
- Fkbp7 value_2: 40.2493
- Fmod value_2: 2.369
- Fndc1 value_2: 15.189
- Fndc4 value_2: 1.244
- Folr1 value_2: 1.905
- Foxc2 value_2: 1.453
- Foxf2 value_2: 1.6602
- Frzb value_2: 144.416
- Fstl3 value_2: 14.8692
- Fzd6 value_2: 2.328
- Gdf6 value_2: 25.9944
- Gm2a value_2: 22.5206
- Gm14420 value_2: 13.7546
- Gmpr value_2: 8.026
- Gpc1 value_2: 10.285
- Gpc4 value_2: 94.2819
- Gpr39 value_2: 22.0499
- Gpr133 value_2: 3.842
- Gpr180 value_2: 14.9448
- Gria4 value_2: 2.6
- Gys1 value_2: 11.4841
- Hk2 value_2: 9.851
- Hoxb2 value_2: 33.6747
- Hrct1 value_2: 3.228
- Hs6st2 value_2: 23.4423
- Hspb1 value_2: 104.396
- Hspg2 value_2: 105.328
- Igf2 value_2: 3.249
- Igfbp2 value_2: 2.5845
- Iglon5 value_2: 2.148
- Ikbip value_2: 68.3911
- Itga5 value_2: 44.6427
- Jub value_2: 23.4821
- Kank1 value_2: 15.8777
- Kazald1 value_2: 4.522
- Kcne4 value_2: 8.547
- Kdm5b value_2: 17.3352
- Kif21b value_2: 8.145
- Kif26b value_2: 3.17
- Klhl26 value_2: 25.6223
- Lclat1 value_2: 20.6695
- Lepre1 value_2: 61.4792
- Leprel1 value_2: 4.84
- Leprel2 value_2: 31.892
- Lgals1 value_2: 1464.5
- Lims2 value_2: 12.2591
- Lox13 value_2: 12.0376
- Loxl1 value_2: 78.0679
- Loxl2 value_2: 668.398
- Lrrn2 value_2: 1.8093
- Mageh1 value_2: 22.8542
- Man2b2 value_2: 26.9926
- Mpzl1 value_2: 88.2456
- Mrvi1 value_2: 2.602
- Myh10 value_2: 34.498
- Myh11 value_2: 6.328
- Myl6 value_2: 531.936
- Mylk value_2: 62.0714
- Myo1d value_2: 22.5024
- Myof value_2: 42.2087
- Ncam1 value_2: 8.073
- Ndrg2 value_2: 12.6911
- Nexn value_2: 6.343
- Nid2 value_2: 130.153
- Nts value_2: 3.21
- Numbl value_2: 22.4916
- Obsl1 value_2: 3.108
- P4ha1 value_2: 120.896
- Palld value_2: 17.5752
- Pcsk5 value_2: 4.88
- Pde1a value_2: 9.282
- Pdlim4 value_2: 4.7862
- Pfkfb4 value_2: 2.359
- Phlda3 value_2: 132.249
- Phldb2 value_2: 149.373
- Phyhd1 value_2: 3.552
- Pla2g15 value_2: 24.3031
- Plac8 value_2: 104.172
- Plekhg3 value_2: 18.1798
- Plp2 value_2: 16.6661
- Plscr2 value_2: 7.544
- Plscr4 value_2: 8.1813
- Pmepa1 value_2: 29.4329
- Pmm1 value_2: 54.8681
- Pmp22 value_2: 85.9788
- Podn value_2: 1.458
- Polr3k value_2: 22.8928
- Pon3 value_2: 19.5497
- Popdc2 value_2: 4.263
- Ppapdc1b value_2: 13.4067
- Ppp1r14a value_2: 20.201
- Pppde2 value_2: 20.4808
- Prdx2 value_2: 167.804
- Prickle1 value_2: 14.268
- Prrc1 value_2: 19.9334
- Psrc1 value_2: 6.874
- Pter value_2: 1.743
- Ptpla value_2: 12.4632
- Ptplad2 value_2: 8.106
- Pvrl2 value_2: 81.9103
- Pygl value_2: 3.275
- Rab7l1 value_2: 5.901
- Rab15 value_2: 1.498
- Rab34 value_2: 55.2701
- Rab3d value_2: 8.99
- Rftn2 value_2: 1.387
- Rhobtb3 value_2: 13.6471
- Rnft1 value_2: 17.8003
- Ror1 value_2: 6.1328
- Rprd1a value_2: 7.118
- Runx2 value_2: 3.741
- Ryk value_2: 55.3732
- S100a1 value_2: 70.3658
- Sardh value_2: 3.193
- Sat2 value_2: 5.26
- Sce1 value_2: 3.6703
- Selm value_2: 80.5867
- Sepx1 value_2: 93.1036
- Serpine2 value_2: 7.825
- Serpinh1 value_2: 1190.39
- Setd7 value_2: 32.7601
- Sfrp1 value_2: 33.2277
- Sgce value_2: 7.751
- Sh3gl3 value_2: 1.09
- Sh3kbp1 value_2: 10.1373
- Shisa3 value_2: 4.345
- Skp2 value_2: 4.997
- Slc2a10 value_2: 2.062
- Slc35a2 value_2: 23.1121
- Slc44a2 value_2: 59.6308
- Slit3 value_2: 39.3977
- Snai1 value_2: 35.4904
- Snta1 value_2: 25.2902
- Snx30 value_2: 13.1255
- Sparcl1 value_2: 5.629
- Speg value_2: 7.409
- Spp1 value_2: 226.746
- Srgap3 value_2: 1.389
- Srpx value_2: 2.6404

— patent US20180325914A1, “INCREASING STORAGE OF VITAMIN A, VITAMIN D AND/OR LIPIDS” (Salk Institute for Biological Studies, priority 2014, published 2018)
